One experiment addresses DNA gyrase (Escherichia coli, UniProt P0AES4+P0AES6). The experiment in a line: Inhibition of Escherichia coli DNA gyrase using relaxed pNO1 plasmid and biotinylated oligonucelotide incubated for 30 mins by fluorescence based DNA super-coiling assay. It is filed as protein-complex assay.
Experiment [1] deals with DNA gyrase (Staphylococcus aureus) (UniProt P0A0K8+P20831). The experiment in a line: Inhibition of Staphylococcus aureus DNA gyrase assessed as residual enzyme activity at 100 uM using relaxed pNO1 plasmid and biotinylated oligonucelotide incubated for 30 mins by fluorescence based DNA super-coiling assay. The format is protein-complex assay.
Chain of DNA gyrase (Staphylococcus aureus) (P0A0K8 2-644 limits assumed): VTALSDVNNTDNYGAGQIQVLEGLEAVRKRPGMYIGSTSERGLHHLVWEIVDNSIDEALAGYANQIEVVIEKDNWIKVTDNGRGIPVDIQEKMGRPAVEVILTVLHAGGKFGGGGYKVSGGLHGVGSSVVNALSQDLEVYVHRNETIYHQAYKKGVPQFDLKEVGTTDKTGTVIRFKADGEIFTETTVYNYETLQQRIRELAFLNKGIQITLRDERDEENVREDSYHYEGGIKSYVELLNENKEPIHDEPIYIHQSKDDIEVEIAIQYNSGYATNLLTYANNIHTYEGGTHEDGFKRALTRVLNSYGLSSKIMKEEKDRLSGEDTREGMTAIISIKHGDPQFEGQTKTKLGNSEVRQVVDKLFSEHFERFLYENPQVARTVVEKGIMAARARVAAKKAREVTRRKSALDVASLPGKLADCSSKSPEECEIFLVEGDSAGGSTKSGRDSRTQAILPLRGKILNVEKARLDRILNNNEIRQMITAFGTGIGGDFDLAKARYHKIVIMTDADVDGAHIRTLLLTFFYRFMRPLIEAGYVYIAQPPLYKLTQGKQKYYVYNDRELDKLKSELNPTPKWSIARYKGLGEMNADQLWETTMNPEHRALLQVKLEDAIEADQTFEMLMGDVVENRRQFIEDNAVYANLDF
Chain of DNA gyrase (Staphylococcus aureus) (P20831 whole entry partner): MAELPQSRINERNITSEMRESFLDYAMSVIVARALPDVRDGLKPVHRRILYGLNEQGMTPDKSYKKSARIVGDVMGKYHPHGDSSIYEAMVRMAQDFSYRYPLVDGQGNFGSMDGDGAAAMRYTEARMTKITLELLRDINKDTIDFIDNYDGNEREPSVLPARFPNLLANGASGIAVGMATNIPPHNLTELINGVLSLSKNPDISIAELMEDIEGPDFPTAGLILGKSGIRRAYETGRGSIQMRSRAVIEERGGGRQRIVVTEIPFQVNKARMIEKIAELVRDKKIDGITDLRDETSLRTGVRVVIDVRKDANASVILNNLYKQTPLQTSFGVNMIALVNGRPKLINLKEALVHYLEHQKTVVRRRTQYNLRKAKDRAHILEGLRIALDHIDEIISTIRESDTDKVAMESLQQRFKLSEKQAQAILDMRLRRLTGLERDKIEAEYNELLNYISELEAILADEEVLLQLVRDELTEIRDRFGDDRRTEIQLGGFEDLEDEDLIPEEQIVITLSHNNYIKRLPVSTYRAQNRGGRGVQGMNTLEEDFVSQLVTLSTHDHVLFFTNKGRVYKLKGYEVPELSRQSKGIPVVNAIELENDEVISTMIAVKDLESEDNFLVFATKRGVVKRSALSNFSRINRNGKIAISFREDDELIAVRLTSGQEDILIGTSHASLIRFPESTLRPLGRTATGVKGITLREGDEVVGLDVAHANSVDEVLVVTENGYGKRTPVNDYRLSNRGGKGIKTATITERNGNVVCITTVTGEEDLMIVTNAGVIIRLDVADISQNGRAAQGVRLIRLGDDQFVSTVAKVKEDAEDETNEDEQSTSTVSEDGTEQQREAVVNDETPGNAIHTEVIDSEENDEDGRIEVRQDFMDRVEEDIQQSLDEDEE
For experiment [2], the system named is Escherichia coli. The experiment in a line: Inhibition of Escherichia coli DNA topoisomerase 4 assessed as residual enzyme activity at 100 uM using relaxed pNO1 plasmid and biotinylated oligonucelotide incubated for 30 mins by fluorescence based DNA relaxation assay.
For experiment [3], the target named is Topoisomerase IV (Staphylococcus aureus) (UniProt P0C1U9+P0C1S7). The experiment in a line: Inhibition of Staphylococcus aureus DNA topoisomerase 4 assessed as residual enzyme activity at 100 uM using relaxed pNO1 plasmid and biotinylated oligonucelotide incubated for 30 mins by fluorescence based DNA relaxation assay. The format is protein-complex assay.
Experiment [4] relates to Escherichia coli. The experiment in a line: Antibacterial activity against wild type Escherichia coli ATCC 25922 by broth microdilution method. The format is functional. In general terms: In broth dilution the organism is exposed to a series of concentrations in liquid medium.
Experiment [5] has as its system Escherichia coli. The experiment in a line: Antibacterial activity against efflux deficient Escherichia coli tolC::Tn10 lacking functional tolC gene by broth microdilution method.
The subject of experiment [6] is Escherichia coli. The experiment in a line: Antibacterial activity against Escherichia coli imp4213::Tn10 by broth microdilution method. The format is functional.
Experiment [7] concerns Escherichia coli. The experiment in a line: Antibacterial activity against wild type Escherichia coli ATCC 25922 assessed as inhibition of microbial growth at 50 uM by broth microdilution method. The format is functional. The following applies: read-out: GI.
Experiment [8] concerns Pseudomonas aeruginosa. The experiment in a line: Antibacterial activity against Pseudomonas aeruginosa ATCC 27853 assessed as inhibition of microbial growth at 50 uM by broth microdilution method. The following applies: read-out: GI. The format is functional.
The test system of experiment [9] is Enterococcus faecalis. The experiment in a line: Antibacterial activity against Enterococcus faecalis ATCC 29212 assessed as inhibition of microbial growth at 50 uM by broth microdilution method. The format is functional. Conditions: read-out: GI.
Experiment [10] concerns Staphylococcus aureus. The experiment in a line: Antibacterial activity against Staphylococcus aureus 25923 assessed as inhibition of microbial growth at 50 uM by broth microdilution method. The format is functional. Conditions: read-out: GI.
Experiment [11] deals with Escherichia coli. The experiment in a line: Antibacterial activity against wild type Escherichia coli ATCC 25922 assessed as inhibition of microbial growth by broth microdilution method. The format is functional.
The subject of experiment [12] is Pseudomonas aeruginosa. The experiment in a line: Antibacterial activity against Pseudomonas aeruginosa ATCC 27853 assessed as inhibition of microbial growth by broth microdilution method. The format is functional.
Experiment [13] has as its system Enterococcus faecalis. The experiment in a line: Antibacterial activity against Enterococcus faecalis ATCC 29212 assessed as inhibition of microbial growth by broth microdilution method. It is filed as functional.
The subject of experiment [14] is Staphylococcus aureus. The experiment in a line: Antibacterial activity against Staphylococcus aureus 25923 assessed as inhibition of microbial growth by broth microdilution method. The format is functional.

Converted amounts (≈) assume the structure as drawn. Some results are limits rather than exact numbers.

By IC50 is commonly meant the concentration at which inhibition is half-maximal. Higher therefore signals a need for much substance. What is called MIC is the lowest concentration that inhibits growth of the organism. Regarding `COC(=O)CC(=O)Nc1ncc2c(n1)CCC(NC(=O)c1cc(Br)c(Br)[nH]1)C2` (stereo not given), at DNA gyrase, half-maximal inhibition (IC50) required 2600 nM. Further, the Activity in experiment [1] is 71%; with Escherichia coli [2] it was 97%; in [3], 98%. For the same compound, the MIC against Escherichia coli [4] was greater than 256 µg/mL; against Escherichia coli [5], 64 µg/mL (≈ 124 µM); against Escherichia coli [6] it was 256 µg/mL (≈ 497 µM); with Escherichia coli [11], greater than 125 µM; with Pseudomonas aeruginosa [12], greater than 125 µM; with Enterococcus faecalis [13] it was greater than 125 µM. For the same compound, the MIC in the experiment on Staphylococcus aureus [14] was greater than 125 µM. Also, the inhibition of growth at 50 µM in the experiment on Escherichia coli [7], with Pseudomonas aeruginosa [8], with Enterococcus faecalis [9] and in the experiment with Staphylococcus aureus [10] was less than 50% in each case.

Consider `O=C(O)CCC(=O)Nc1nc2c(s1)C[C@@H](NC(=O)c1cc3ccccc3[nH]1)CC2`, for which, on DNA gyrase, half-maximal inhibition (IC50) was put at 8100 nM. The values for the Activity (in experiment [1]; with Escherichia coli [2]; in experiment [3]) were 95%, 99% and 79%, respectively. Moreover, the MIC against Escherichia coli [4] is greater than 256 µg/mL; against Escherichia coli [5] it was greater than 256 µg/mL; in the experiment with Escherichia coli [6], greater than 256 µg/mL; with Escherichia coli [11] it was greater than 125 µM; with Pseudomonas aeruginosa [12], greater than 125 µM; with Enterococcus faecalis [13], greater than 125 µM. Further, the MIC in the experiment on Staphylococcus aureus [14] was greater than 125 µM. The inhibition of growth at 50 µM in the experiment on Escherichia coli [7], with Pseudomonas aeruginosa [8], in the experiment with Enterococcus faecalis [9] and with Staphylococcus aureus [10] was less than 50% throughout.

As for `Nc1ncc2c(n1)CCC(NC(=O)c1cc(Br)c(Br)[nH]1)C2` (stereo not given), at DNA gyrase, 2900 nM corresponded to half-maximal inhibition (IC50). The Activity in [1] worked out at 96%; with Escherichia coli [2] it was 102%; in [3] it was 98%. Also, the MIC against Escherichia coli [4] was greater than 256 µg/mL; in the experiment on Escherichia coli [5], greater than 256 µg/mL; in the experiment with Escherichia coli [6], greater than 256 µg/mL; in the experiment on Escherichia coli [11], greater than 125 µM; with Pseudomonas aeruginosa [12] it was greater than 125 µM; with Enterococcus faecalis [13] it was greater than 125 µM. Also, the MIC in the experiment with Staphylococcus aureus [14] was greater than 125 µM. For the same compound, the inhibition of growth at 50 µM with Escherichia coli [7], with Pseudomonas aeruginosa [8], with Enterococcus faecalis [9] and in the experiment with Staphylococcus aureus [10] was less than 50% throughout.

In turn, `COC(=O)CC(=O)Nc1nc2c(s1)C[C@H](NC(=O)c1cc(Br)c(Br)[nH]1)CC2` gave an IC50 on DNA gyrase of 9100 nM. The Activity in experiment [1] came to 64%; in the experiment on Escherichia coli [2], 101%; in experiment [3], 85%. Also, the MIC was greater than 256 µg/mL against Escherichia coli [4]; 64 µg/mL (≈ 123 µM) in the experiment on Escherichia coli [5]; 256 µg/mL (≈ 492 µM) with Escherichia coli [6]; greater than 125 µM with Escherichia coli [11]; greater than 125 µM with Pseudomonas aeruginosa [12]; greater than 125 µM with Enterococcus faecalis [13]. Besides, the MIC in the experiment with Staphylococcus aureus [14] is greater than 125 µM. Further, the inhibition of growth at 50 µM with Escherichia coli [7], in the experiment on Pseudomonas aeruginosa [8], in the experiment on Enterococcus faecalis [9] and in the experiment on Staphylococcus aureus [10] was less than 50% each time.

In turn, `COC(=O)CCC(=O)Nc1nc2c(s1)C[C@@H](NC(=O)c1cc(Cl)c(Cl)[nH]1)CC2` gave an IC50 against DNA gyrase of 890 nM. The Activity in experiment [1] was 86%; with Escherichia coli [2], 100%; in experiment [3], 93%. For the same compound, the MIC in the experiment on Escherichia coli [4] is greater than 256 µg/mL; in the experiment with Escherichia coli [5], greater than 256 µg/mL; against Escherichia coli [6], greater than 256 µg/mL; in the experiment with Escherichia coli [11], greater than 125 µM; in the experiment on Pseudomonas aeruginosa [12] it was greater than 125 µM; in the experiment on Enterococcus faecalis [13] it was greater than 125 µM. Further, the MIC with Staphylococcus aureus [14] was greater than 125 µM. The inhibition of growth at 50 µM with Escherichia coli [7], with Pseudomonas aeruginosa [8], in the experiment on Enterococcus faecalis [9] and with Staphylococcus aureus [10] was less than 50% each time.

The values above are taken from ChEMBL document CHEMBL3588817, “Discovery of 4,5,6,7-Tetrahydrobenzo[1,2-d]thiazoles as Novel DNA Gyrase Inhibitors Targeting the ATP-Binding Site” (J Med Chem, 2015).
